Measured values from PubChem BioAssay (NCI).
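The compound was tested at five concentrations on cells cultured in 96-well plates, with a 48-hour exposure period. TGI marks complete inhibition of growth.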

Key:
Assay in all cases: DTP human tumour cell line panel, 48 h
[1] = tested on: HOP-92 NSCLC
[2] = tested on: U251 CNS
[3] = tested on: UO-31 renal
[4] = tested on: SF-268 CNS
[5] = tested on: NCI/ADR-RES ovarian
[6] = tested on: MALME-3M melanoma
[7] = tested on: UACC-257 melanoma
[8] = tested on: IGROV1 ovarian
[9] = tested on: SK-MEL-5 melanoma
[10] = tested on: SK-OV-3 ovarian
[11] = tested on: DU-145 prostate
[12] = tested on: COLO 205 colon
[13] = tested on: OVCAR-4 ovarian
[14] = tested on: K-562 leukemia
[15] = tested on: NCI-H460 lung
[16] = tested on: A498 renal
[17] = tested on: SK-MEL-28 melanoma
[18] = tested on: 786-0 renal
[19] = tested on: HCT-15 colon
[20] = tested on: UACC-62 melanoma
[21] = tested on: HL-60(TB) leukemia
[22] = tested on: SW-620 colon
[23] = tested on: LOX IMVI melanoma
[24] = tested on: MCF7 breast
[25] = tested on: PC-3 prostate
[26] = tested on: EKVX NSCLC
[27] = tested on: HCT-116 colon
[28] = tested on: ACHN renal
[29] = tested on: NCI-H226 lung
[30] = tested on: MOLT-4 leukemia
[31] = tested on: HT29 colon
[32] = tested on: OVCAR-5 ovarian
[33] = tested on: A549 NSCLC
[34] = tested on: SNB-19 CNS
[35] = tested on: MDA-MB-435
[36] = tested on: RXF 393 renal
[37] = tested on: MDA-N
[38] = tested on: HCC-2998 colon
[39] = tested on: NCI-H23 lung
[40] = tested on: MDA-MB-231 breast
[41] = tested on: KM12 colon
[42] = tested on: CCRF-CEM leukemia
[43] = tested on: SF-295 CNS
[44] = tested on: SK-MEL-2 melanoma
[45] = tested on: SN12C renal
[46] = tested on: SR leukemia
[47] = tested on: T-47D breast
[48] = tested on: M14 melanoma
[49] = tested on: OVCAR-3 ovarian
[50] = tested on: NCI-H522 lung
[51] = tested on: SF-539 CNS
[52] = tested on: OVCAR-8 ovarian
[53] = tested on: CAKI-1 renal
[54] = tested on: SNB-75 CNS
[55] = tested on: HOP-62 NSCLC
[56] = tested on: HS 578T breast
[57] = tested on: RPMI-8226 leukemia
[58] = tested on: TK-10 renal

O=C(O)C(O)C(O)C(O)C(O)C(=O)O (stereo unspecified)
TGI [1]: > 100 µM
TGI [2]: > 100 µM
TGI [3]: > 100 µM
TGI [4]: > 100 µM
TGI [5]: > 100 µM
TGI [6]: > 100 µM
TGI [7]: > 100 µM
TGI [8]: > 100 µM
TGI [9]: > 100 µM
TGI [10]: > 100 µM
TGI [11]: > 100 µM
TGI [12]: > 100 µM
TGI [13]: > 100 µM
TGI [14]: > 100 µM
TGI [15]: > 100 µM
TGI [16]: > 100 µM
TGI [17]: > 100 µM
TGI [18]: > 100 µM
TGI [19]: > 100 µM
TGI [20]: > 100 µM
TGI [21]: > 100 µM
TGI [22]: > 100 µM
TGI [23]: > 100 µM
TGI [24]: > 100 µM
TGI [25]: > 100 µM
TGI [26]: > 100 µM
TGI [27]: > 100 µM
TGI [28]: > 100 µM
TGI [29]: > 100 µM
TGI [30]: > 100 µM
TGI [31]: > 100 µM
TGI [32]: > 100 µM
TGI [33]: > 100 µM
TGI [34]: > 100 µM
TGI [35]: > 100 µM
TGI [36]: > 100 µM
TGI [37]: > 100 µM
TGI [38]: > 100 µM
TGI [39]: > 100 µM
TGI [40]: > 100 µM
TGI [41]: > 100 µM
TGI [42]: > 100 µM
TGI [43]: > 100 µM
TGI [44]: > 100 µM
TGI [45]: > 100 µM
TGI [46]: > 100 µM
TGI [47]: > 100 µM
TGI [48]: > 100 µM
TGI [49]: > 100 µM
TGI [50]: > 100 µM
TGI [51]: > 100 µM
TGI [52]: > 100 µM
TGI [53]: > 100 µM
TGI [54]: > 100 µM
TGI [55]: > 100 µM

Oc1cnc2c(O)cccc2c1
TGI [1]: > 100 µM
TGI [2]: > 100 µM
TGI [3]: > 100 µM
TGI [4]: > 100 µM
TGI [5]: 66.5 µM
TGI [6]: > 100 µM
TGI [7]: > 100 µM
TGI [8]: > 100 µM
TGI [10]: > 100 µM
TGI [11]: > 100 µM
TGI [14]: > 100 µM
TGI [56]: > 100 µM
TGI [15]: > 100 µM
TGI [16]: > 100 µM
TGI [17]: > 100 µM
TGI [18]: > 100 µM
TGI [19]: > 100 µM
TGI [20]: 62.3 µM
TGI [21]: > 100 µM
TGI [22]: > 100 µM
TGI [23]: > 100 µM
TGI [24]: > 100 µM
TGI [25]: > 100 µM
TGI [57]: > 100 µM
TGI [26]: 57.2 µM
TGI [27]: > 100 µM
TGI [58]: > 100 µM
TGI [28]: 92.9 µM
TGI [29]: 85.5 µM
TGI [30]: > 100 µM
TGI [31]: > 100 µM
TGI [32]: > 100 µM
TGI [33]: > 100 µM
TGI [34]: > 100 µM
TGI [35]: > 100 µM
TGI [37]: > 100 µM
TGI [38]: > 100 µM
TGI [40]: > 100 µM
TGI [41]: > 100 µM
TGI [43]: > 100 µM
TGI [44]: > 100 µM
TGI [45]: > 100 µM
TGI [46]: > 100 µM
TGI [47]: 91.6 µM
TGI [48]: > 100 µM
TGI [49]: 65 µM
TGI [50]: > 100 µM
TGI [51]: 96.6 µM
TGI [52]: 80.5 µM
TGI [54]: 79.9 µM
TGI [55]: > 100 µM
